Laboratory results published in PubChem BioAssay (NCI).
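Test compounds were applied to cells in 96-well plates for 48 hours at 5 doses. At the TGI there is no net growth.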

Assays:
Assay in all cases: NCI tumour cell line growth inhibition, 48 h
HS 578T breast = system: HS 578T breast
MDA-MB-231 breast = system: MDA-MB-231 breast
NCI-H522 lung = system: NCI-H522 lung
RXF 393 renal = system: RXF 393 renal
NCI-H23 lung = system: NCI-H23 lung
T-47D breast = system: T-47D breast
MCF7 breast = system: MCF7 breast
A549 NSCLC = system: A549 NSCLC
OVCAR-5 ovarian = system: OVCAR-5 ovarian
A498 renal = system: A498 renal
OVCAR-8 ovarian = system: OVCAR-8 ovarian
TK-10 renal = system: TK-10 renal
NCI/ADR-RES ovarian = system: NCI/ADR-RES ovarian
MDA-N = system: MDA-N
MALME-3M melanoma = system: MALME-3M melanoma
SK-MEL-5 melanoma = system: SK-MEL-5 melanoma
COLO 205 colon = system: COLO 205 colon
786-0 renal = system: 786-0 renal
K-562 leukemia = system: K-562 leukemia
HOP-62 NSCLC = system: HOP-62 NSCLC
UO-31 renal = system: UO-31 renal
SNB-75 CNS = system: SNB-75 CNS
MDA-MB-435 = system: MDA-MB-435
BT-549 breast = system: BT-549 breast
LOX IMVI melanoma = system: LOX IMVI melanoma
SN12C renal = system: SN12C renal
SF-268 CNS = system: SF-268 CNS
U251 CNS = system: U251 CNS
SNB-19 CNS = system: SNB-19 CNS
KM12 colon = system: KM12 colon
UACC-62 melanoma = system: UACC-62 melanoma
CAKI-1 renal = system: CAKI-1 renal
NCI-H460 lung = system: NCI-H460 lung
EKVX NSCLC = system: EKVX NSCLC
HT29 colon = system: HT29 colon
SW-620 colon = system: SW-620 colon
M14 melanoma = system: M14 melanoma
SR leukemia = system: SR leukemia
HCT-15 colon = system: HCT-15 colon
HOP-92 NSCLC = system: HOP-92 NSCLC
SK-MEL-2 melanoma = system: SK-MEL-2 melanoma
HL-60(TB) leukemia = system: HL-60(TB) leukemia
OVCAR-4 ovarian = system: OVCAR-4 ovarian
OVCAR-3 ovarian = system: OVCAR-3 ovarian
IGROV1 ovarian = system: IGROV1 ovarian
SK-OV-3 ovarian = system: SK-OV-3 ovarian
PC-3 prostate = system: PC-3 prostate
SF-539 CNS = system: SF-539 CNS
MOLT-4 leukemia = system: MOLT-4 leukemia
HCT-116 colon = system: HCT-116 colon
NCI-H226 lung = system: NCI-H226 lung
SF-295 CNS = system: SF-295 CNS
ACHN renal = system: ACHN renal
SK-MEL-28 melanoma = system: SK-MEL-28 melanoma
UACC-257 melanoma = system: UACC-257 melanoma
DU-145 prostate = system: DU-145 prostate

Measured: TGI

CC1(C)SC2C(NC(=O)Cc3ccccc3)C(=O)N2C1C(=O)O (stereo unspecified)
> 100 µM: all assays above
